Columns and labels:
AML12 Cell Line = test: Transfection of AML12 Cell Line with FLuc mRNA LNPs (ONE-Glo EX luciferase signal); assay type: cell-based; conditions: 200 ng Fluc mRNA-LNP, 24 hours; Table 4
Outline: (§1)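 Firefly luciferase luminescence measured 24 h after transfection with 200 ng mRNA-LNP per well in Opti-MEM. Seeding: 5,000 cells/well for B16F10 and MC38.K, 20,000 for AML12. LNPs were pre-incubated 30 min with mouse serum; mRNA content determined by RiboGreen.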

Liver = test: Ex-vivo luminescence signal from liver after IV Fluc mRNA LNPs in CD1 mice (IVIS); conditions: tail vein 1.0 mg/kg Day 0 and Day 2, imaging 18 hours after second dose, Table 4
MC38.K Cell Line = test: Transfection of MC38.K Cell Line with FLuc mRNA LNPs (ONE-Glo EX luciferase signal); assay type: cell-based; conditions: 200 ng Fluc mRNA-LNP, 24 hours; Table 4
Outline: as §1

B16F10 Cell Line = test: Transfection of B16F10 Cell Line with FLuc mRNA LNPs (ONE-Glo EX luciferase signal); assay type: cell-based; conditions: 200 ng Fluc mRNA-LNP, 24 hours; Table 4
Outline: as §1

| SMILES | Total Luciferin Signal (RLU) In Vitro - AML12 (AML12 Cell Line) [RLU] | Total Liver Tissue Luciferin Signal (Photons/s) Ex-vivo - CD1 (Liver) [Photons/s] | Total Luciferin Signal (RLU) In Vitro - MC38.K (MC38.K Cell Line) [RLU] | Total Luciferin Signal (RLU) In Vitro - B16F10 (B16F10 Cell Line) [RLU] | Total Liver Tissue Luciferin Signal (Photons/s) In Vitro - CD1 (Liver) [Photons/s] |
| --- | --- | --- | --- | --- | --- |
| CCCCCCCCC(CCCCCCCCF)OC(=O)CCCCCCCN(CCO)CCCCCC(=O)OC(CCCCCCCC)CCCCCCCC (stereo not shown) [Compound 35] | 1.57E+05 | 1.51E+10 | 4.52E+05 | 4.43E+05 | – |
| CCCCCCCCCOC(=O)CCCCCCCN(CCO)CCCCCCC(C)C(=O)OC(CCCCCCCC)CCCCCCCC (stereo not shown) [Compound 36] | 2.18E+05 | 6.41E+08 | 2.32E+05 | 2.85E+05 | – |
| CCCCCCCCCOC(=O)C(C)CCCCCCN(CCO)CCCCCCCC(=O)OC(CCCCCCCC)CCCCCCCC (stereo not shown) [Compound 37] | 7.63E+05 | 6.65E+09 | 1.00E+06 | 2.66E+06 | – |
| CCCCCCCCCOC(=O)CCCCCCCN(CCCCCCC(C)C(=O)OC(CCCCCCCC)CCCCCCCC)CCOC(=O)CCCN(C)C (stereo not shown) [Compound 38, heptadecan-9-yl 8-((2-((4-(dimethylamino)butanoyl)oxy)ethyl)(8-(nonyloxy)-8-oxooctyl)amino)-2-methyloctanoate] | 1.22E+06 | 5.28E+07 | 2.06E+06 | 2.75E+06 | – |
| [2H]C([2H])(O)C([2H])([2H])N(CCCCCCCC(=O)OCCCCCCCCC)CCCCCCCC(=O)OC(CCCCCCCC)CCCCCCCC [Compound 39, heptadecan-9-yl 8-((2-hydroxyethyl-1,1,2,2-d4)(8-(nonyloxy)-8-oxooctyl)amino)octanoate] | 6.92E+05 | – | 8.82E+05 | 3.58E+05 | 7.86E+06 |
| [2H]C([2H])(OC(=O)CCCN(C)C)C([2H])([2H])N(CCCCCCCC(=O)OCCCCCCCCC)CCCCCCCC(=O)OC(CCCCCCCC)CCCCCCCC [Compound 40, heptadecan-9-yl 8-((2-((4-(dimethylamino)butanoyl)oxy)ethyl-1,1,2,2-d4)(8-(nonyloxy)-8-oxooctyl)amino)octanoate] | 4.13E+06 | 1.12E+08 | 8.09E+06 | 3.61E+06 | – |
| CCCCCCCCCCCCN(CCO)CCCCCC(=O)OCCCCCCCCCCC [Compound 42] | 2.36E+04 | – | 5.65E+04 | 1.91E+04 | 2.04E+06 |
| CC(C)CCCCCCCCOC(=O)CCCCCCCN(CCO)CCCCCCCC(=O)OCCCCCCCCC(C)C [Compound 45] | 3.98E+05 | 4.18E+08 | 1.09E+06 | 1.98E+06 | – |
| CCCCCCCCC(CCCCCCCF)C(=O)OCCCCCCCN(CCO)CCCCCCCOC(=O)CCCCCCCC=C(C)C (stereo not shown) [Compound 52, 7-((7-((2-(7-fluoroheptyl)decanoyl)oxy)heptyl)(2-hydroxyethyl)amino)heptyl 10-methylundec-9-enoate] | 2.59E+05 | 7.87E+09 | 4.31E+05 | 2.53E+05 | – |
| CCCCCCCCC(CCCCCCCF)OC(=O)CCCCCCCN(CCO)CCCCCC(=O)OC(CCCCCCCC)CCCCCC(C)C (stereo not shown) [Compound 55, 1-fluorohexadecan-8-yl 8-((2-hydroxyethyl)(6-((2-methylhexadecan-8-yl)oxy)-6-oxohexyl)amino)octanoate] | 4.19E+05 | 1.93E+10 | 1.80E+06 | 1.10E+06 | – |
| CCCCCCCCCOC(=O)CCCCCCCN(CCCCCCCC(=O)OC(CCCCCCCC)CCCCCCCCF)CCN(C)C (stereo not shown) [Compound 56, 1-fluoroheptadecan-9-yl 8-((2-(dimethylamino)ethyl)(8-(nonyloxy)-8-oxooctyl)amino)octanoate] | 6.63E+06 | 1.77E+09 | 2.52E+07 | 1.54E+07 | – |
| CCCCCCCCC(CCCCCCCCF)OC(=O)CCCCCCCN(CCO)CCCCCC(=O)OCCCCCCC(C)C (stereo not shown) [Compound 57, 1-fluoroheptadecan-9-yl 8-((2-hydroxyethyl)(6-((7-methyloctyl)oxy)-6-oxohexyl)amino)octanoate] | 2.63E+06 | 1.05E+10 | 1.42E+07 | 1.27E+06 | – |
| CCCCCCCCC(CCCCCCCC)OC(=O)CCCCCCCN(CCO)CCCCCCC(C)C(=O)OCCCCCCCCC(C)C (stereo not shown) [Compound 59, 9-methyldecyl 8-((8-(heptadecan-9-yloxy)-8-oxooctyl)(2-hydroxyethyl)amino)-2-methyloctanoate] | 8.24E+05 | 5.55E+09 | 8.40E+06 | 6.17E+05 | – |
| CCCCCCCCC(CCCCCCCCF)C(=O)OCCCCCCCN(CCO)CCCCCCCOC(=O)CCCCCCCCC(C)C (stereo not shown) [Compound 60, 7-((7-((10-fluoro-2-octyldecanoyl)oxy)heptyl)(2-hydroxyethyl)amino)heptyl 10-methylundecanoate] | 8.00E+05 | 3.00E+09 | 5.21E+06 | 3.17E+05 | – |
| CCCCCCCCCOC(=O)C(C)CCCCCCN(CCO)CCCCCCCC(=O)OC(CCCCCCCC)CCCCCCCCF (stereo not shown) [Compound 61, nonyl 8-((8-((1-fluoroheptadecan-9-yl)oxy)-8-oxooctyl)(2-hydroxyethyl)amino)-2-methyloctanoate] | 8.13E+05 | 1.38E+10 | 1.11E+07 | 9.46E+05 | – |
| CCCCCCCCCOC(=O)C(C)CCCCCCN(CCCCO)CCCCCCCC(=O)OC(CCCCCCCC)CCCCCCCC (stereo not shown) [Compound 62, nonyl 8-((8-(heptadecan-9-yloxy)-8-oxooctyl)(4-hydroxybutyl)amino)-2-methyloctanoate] | 2.33E+06 | 1.03E+10 | 3.47E+07 | 2.73E+06 | – |
